Data as given in PMC3276575, “Structural and Functional Insights into the Pilotin-Secretin Complex of the Type II Secretion System” (PLoS Pathogens, 2012).
Peptide text beside a SMILES is read from it.

T1: OutS_Q114A (Dickeya dadantii, UniProt Q01567, Q114A)
T1 construct: made in house; host or cells: E. coli (periplasm)
T1 sequence (Q01567 21-133 Q114A): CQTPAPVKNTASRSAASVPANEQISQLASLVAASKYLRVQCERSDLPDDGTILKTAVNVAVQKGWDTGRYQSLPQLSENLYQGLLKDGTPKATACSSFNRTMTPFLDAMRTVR

T2: OutS_L96A (Dickeya dadantii, UniProt Q01567, L96A)
T2 construct: made in house; host or cells: E. coli (periplasm)
T2 sequence (Q01567 21-133 L96A): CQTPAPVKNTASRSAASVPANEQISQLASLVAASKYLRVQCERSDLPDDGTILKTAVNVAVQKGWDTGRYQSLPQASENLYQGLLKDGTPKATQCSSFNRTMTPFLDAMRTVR

T3: OutS_L100A (Dickeya dadantii, UniProt Q01567, L100A)
T3 construct: made in house; host or cells: E. coli (periplasm)
T3 sequence (Q01567 21-133 L100A): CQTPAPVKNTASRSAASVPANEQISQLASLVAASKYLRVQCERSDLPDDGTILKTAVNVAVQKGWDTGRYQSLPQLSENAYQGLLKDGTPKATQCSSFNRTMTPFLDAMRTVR

T4: OutS_S49R (Dickeya dadantii, UniProt Q01567, S49R)
T4 construct: made in house; host or cells: E. coli (periplasm)
T4 sequence (Q01567 21-133 S49R): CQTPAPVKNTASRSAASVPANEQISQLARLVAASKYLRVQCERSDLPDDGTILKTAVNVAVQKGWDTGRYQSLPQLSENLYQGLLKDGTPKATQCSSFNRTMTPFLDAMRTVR


Experiments:
[1] = molecular target: T1, OutS_Q114A; assay: Fluorescence quenching titration, secretin peptide binding to pilotin mutant Q114A; conditions: fluorescence at 340 nm, excitation 290 nm, 15°C, 1 µM pilotin
Description: (§1) The pET-20b(+) plasmid expressing non-lipidated OutS (residues 26 to 132) fused to N-terminal PelB signal peptide has been constructed previously at a manner as the sequence of mature non-lipidated OutS after cleavage by the signal peptidase LepB is: MDP^26VKNT etc. To fuse a C-terminal 6His tag to non-lipidated OutS, SalI site was introduced at the end of outS sequence by using the primer (5′-ctt gac gcc atg cgc acc gtc gac tga ggg gga agc aac tgc) and the reverse complementary one (mutated bases are underlined). Then, by SalI/XhoI digestion the sequence coding for non-lipidated OutS was fused with that coding for 6His. Mutants of OutS were made using Strategene QuikChange and confirmed by sequencing.
(§2) Fluorescence data were collected using a Jasco FP-6300 Spectrofluorometer. […] Emission spectra were recorded at 15°C in steps of 2 nm from 310 to 400 nm. The fluorescence signal at 340 nm was plotted to calculate K d. Pilotin spectra was measured at 1 µM. […]
(§3) The Kd was determined by fitting the following equation: […]
(§4) where [PS] is the concentration of the pilotin/secretin complex, [P0] is the total concentration of the pilotin (1 µM), [S0] is the total concentration of the secretin peptide, and Kd is the dissociation constant. The observed fluorescence signal is then given by: F = FPS[PS] + FP[P]; as there are no tryptophans in the secretin peptide. […]

[2] = molecular target: T2, OutS_L96A; assay: Fluorescence quenching titration, secretin peptide binding to pilotin mutant L96A; conditions: fluorescence at 340 nm, excitation 290 nm, 15°C, 1 µM pilotin
Description: as §1, §2, §3, §4

[3] = molecular target: T3, OutS_L100A; assay: Fluorescence quenching titration, secretin peptide binding to pilotin mutant L100A; conditions: fluorescence at 340 nm, excitation 290 nm, 15°C, 1 µM pilotin
Description: as §1, §2, §3, §4

[4] = molecular target: T4, OutS_S49R; assay: Fluorescence quenching titration, secretin peptide binding to pilotin mutant S49R; conditions: fluorescence at 340 nm, excitation 290 nm, 15°C, 1 µM pilotin
Description: as §1, §2, §3, §4

[5] = system: E. coli NM522 cells; assay: Membrane location by flotation sucrose gradient centrifugation; format: cell-based; conditions: with pilotin OutS, immunoblot
Description: (§5) Figure 4 In vivo determination of secretin interactions with pilotin. Removal of the extreme C-terminal region of the secretin results in mislocalization of the secretin to the inner membrane (A) Sequence of the C-terminus of Dickeya dadantii secretin (OutD) along with the secondary structure prediction for this region; the predicted three helices are marked “H”. The sequences of the three secretin deletion mutants (OutDΔC1 to OutDΔC3) and the C-terminal secretin peptides used are shown. (B) Stabilization of truncated derivatives of the secretin (OutD) by pilotin (OutS) in vivo. E. coli MC3 cells expressing an OutD derivative (indicated above) and either OutS (+) or empty pACT3 vector (−) were grown for 12 h at 30°C in LB medium and then analyzed by immunoblotting with OutD antibodies. In the same cultures, β-galactosidase activity was assessed to estimate expression of pspA-lacZ. An elevated level of pspA reflects mislocalization of the corresponding secretin derivative to the inner membrane. […] The whole membrane fraction from E. coli NM522 cells coexpressing the indicated secretin derivatives and pilotin was separated by flotation sucrose gradient centrifugation and analyzed by immunoblotting with OutD- antibodies or stained with Coomassie G-250 to detect the major porins, which reflect the position of the outer membrane. […]

[6] = system: inner membrane; conditions: ref [21]; cited from earlier work
Description: The type II secretion system spans both the inner and outer bacterial membranes, [18]. It consists of an inner membrane subcomplex, periplasmic pseudopilins and the outer membrane secretin [19]. There have been considerable recent advances in our understanding of the T2SS secretin. First the structure of the N-terminal periplasmic domains N0, N1, and N2 in complex with a nanobody was elucidated (PDB code 3EZJ) and secondly a cryo EM reconstruction of the secretin itself has been described. In the absence of pilotin the D. dadantii secretin (OutD) mislocates to the inner ...

[7] = system: pspA-lacZ; assay: pspA-lacZ induction (β-galactosidase activity); format: cell-based; conditions: E. coli MC3, 12 h at 30°C in LB
Description: as §5

Row | Molecule | Kd [1] [µM] | Kd [2] [µM] | Kd [3] [µM] | Kd [4] [µM] | outer membrane location / targeting [5] | location of secretin in absence of pilotin [6] | pspA (β-galactosidase activity) ([7]; OutS: +) | pspA (β-galactosidase activity) ([7]; OutS: − (empty pACT3 vector))
1 | CC[C@H](C)[C@H](NC(=O)[C@H](CO)NC(=O)[C@H](CO)NC(=O)[C@H](CCC(N)=O)NC(=O)[C@@H](NC(=O)[C@H](CCC(N)=O)NC(=O)[C@H](CCCNC(=N)N)NC(=O)[C@H](Cc1ccccc1)NC(=O)[C@@H](NC(=O)[C@H](Cc1ccc(O)cc1)NC(=O)[C@@H](N)[C@@H](C)O)[C@@H](C)O)C(C)C)C(=O)N[C@@H](CO)C(=O)N[C@@H](CC(=O)O)C(=O)N[C@@H](Cc1ccccc1)C(=O)N[C@@H](Cc1ccc(O)cc1)C(=O)N[C@@H](CCCCN)C(=O)N1CCC[C@H]1C(=O)N[C@@H](CCC(=O)O)C(=O)O [18 residue secretin peptide] (H-TYTFRQVQSSISDFYKPE-OH) | 1.1 ± 0.35 | 5.3 ± 1.2 | 2.1 ± 0.5 | > 200 |  |  |  | 
2 | OutD: Dickeya dadantii secretin of the type II secretion system, UniProt Q01565 (protein, UniProt Q01565 28-710, looked up) Secretin OutD: AEFSASFKGTDIQEFINTVSKNLNKTVIIDPTVRGTISVRSYDMMNEGQYYQFFLSVLDVYGFSVVPMDNGVLKVIRSKDAKSSSIPLANNEQPGIGDELVTRVVPLNNVAARDLAPLLRQLNDNAGAGTVVHYEPSNVLLMTGRAAVIKRLVDIVNTVDKTGDREMVTVPLTYASAEDVAKLVNDLNKSDEKNALPSTMLANVVADGRTNSVVVSGEENARQRAVEMIRQLDRKQVVQGGTKVIYLKYAKALDLIEVLAGNGTSGNRNSSSSNASRPSSPRSGSSSNSNSSSGSSGSSSGSSSSSSSSSSMGFGSAFGSTSSSGGRTITIQGKEVTVRAHDQTNSLIITAPPDIMRDLEQVINQLDIRRPQVLVEAIIAEIQDADGLNLGIQWANKRAGMTQFTNTGIPISTAVIGTDQFRSNGTLTTAYASALSSFNGVTAGFYRGNWSMLLTALSSDSKNDVLATPSIVTLDNMEATFNVGQEVPVLTGSQTTSADNIFNTVERKTVGIKLRVKPQINEGDSVLLQIEQEVSSVADSNSSTNSSLGVTFNTRTVNNAVMVTNGETVVVGGLLDKTSVESNDKVPLLGDIPWLGSLFRSKSQEVRKRNLMLFLRPTIIRDPGQFQEASINKYRSFNNEQQQQRGEGNGVLDNNTLRLSGGNTYTFRQVQSSISDFYKPEGR |  |  |  |  | promotes the outer membrane location | mislocates to the inner membrane | 800 | 1100
